The values that follow come from ChEMBL document CHEMBL3421614, “Identification of novel aldose reductase inhibitors based on carboxymethylated mercaptotriazinoindole scaffold” (J Med Chem, 2015).

Data set [1] concerns the target Aldo-keto reductase family 1 member B1 (Rattus norvegicus, UniProt P07943). The data set is described as follows: Inhibition of Wistar rat lens aldose reductase using D,L-glyceraldehyde as substrate incubated for 1 min measured for 4 mins by spectrophotometry.
The nature of data set [2]: Inhibition of Wistar rat kidney aldehyde reductase using D-glucuronate as substrate at 10 uM by spectrophotometry.
Data set [3] can be described thus: Inhibition of Wistar rat kidney aldehyde reductase using D-glucuronate as substrate at 100 uM by spectrophotometry.
For data set [4], the target named is Aldo-keto reductase family 1 member B1 (Rattus norvegicus) (UniProt P07943). The data set is described as follows: Inhibition of Wistar rat lens aldose reductase using D,L-glyceraldehyde as substrate at 100 uM incubated for 1 min measured for 4 mins by spectrophotometry.
Data set [5] has the same target. The data set is described as follows: Inhibition of Wistar rat lens aldose reductase using D,L-glyceraldehyde as substrate at 10 uM incubated for 1 min measured for 4 mins by spectrophotometry.
Data set [6] in a line: Octanol-phosphate buffer partition coefficient, log D of the compound at 100 uM at pH 7.4 at RT after 1 hr by shake flask method. The class given is physicochemical.
For data set [7], the target named is Aldo-keto reductase family 1 member B10 (Homo sapiens, UniProt O60218). The data set is described as follows: Inhibition of human AKR1B10 using D-glucuronate as substrate by spectrophotometry.
Aldo-keto reductase family 1 member B10, sequence (O60218 whole entry): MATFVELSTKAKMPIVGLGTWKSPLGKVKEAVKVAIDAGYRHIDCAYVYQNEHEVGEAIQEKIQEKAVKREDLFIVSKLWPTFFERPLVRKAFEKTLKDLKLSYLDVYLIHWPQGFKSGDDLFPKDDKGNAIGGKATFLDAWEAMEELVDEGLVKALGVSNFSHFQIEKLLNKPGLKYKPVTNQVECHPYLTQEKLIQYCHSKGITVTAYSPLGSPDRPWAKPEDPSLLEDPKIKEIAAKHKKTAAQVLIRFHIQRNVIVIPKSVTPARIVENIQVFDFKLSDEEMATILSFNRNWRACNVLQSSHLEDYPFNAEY

The term inhibition denotes the relative decrease from the control value, in per cent. For the molecule `Cc1cc(C)c(NC(=O)CSc2nnc3c4ccccc4n(CC(=O)O)c3n2)c(C)c1`, the IC50 in data set [1] (read-out: IC50) amounted to 4.06 µM. Further, the inhibition in data set [2] amounted to 23.5%.

As to `O=C(O)Cn1cc(N2CCOCC2)c2ccccc21`, the IC50 in data set [1] (read-out: IC50) was determined as 34.5 µM. The inhibition in data set [3] was 32.5%.

Consider `O=C(O)Cn1c2c(c3ccccc31)CCC2`, for which, in data set [1] (read-out: IC50), the IC50 came to 2.87 µM.

With `CCN(CC)Cc1cn(CC(=O)O)c2ccccc12`, in data set [1] (read-out: IC50), the IC50 turned out to be 30.1 µM. In addition, the inhibition in data set [3] turned out to be 38%.

As for `O=C(O)Cn1ccc2ccccc21`, the IC50 in data set [1] (read-out: IC50) was 7.3 µM.

On to `O=C(O)Cn1c2ccccc2c2cn[nH]c(=O)c21`, for which the IC50 in data set [1] (read-out: IC50) came out at 11.5 µM. The same molecule gave an inhibition in data set [3] of 49%.

As to `CC(C)(C)C(=O)c1cn(CC(=O)O)c2ccccc12`, the IC50 in data set [1] (read-out: IC50) was 13.8 µM.

Regarding `CCN(CC)Cc1cn(CCC(=O)O)c2ccccc12`, the results for the inhibition in data set [4] and in data set [3] were 19.9% and 6.65%, respectively.

Turning to `O=C(O)Cn1cc(Cc2nc3c(F)c(F)cc(F)c3s2)c2ccccc21` [LIDORESTAT], the IC50 in data set [1] (read-out: IC50) worked out at 0.005 µM.

As for `CC(C)Sc1nnc2c3ccccc3n(CC(=O)O)c2n1`, the IC50 in data set [1] (read-out: IC50) came out at 2.05 µM.

`Sc1nnc2c(n1)[nH]c1ccccc12` registered an inhibition in data set [4] of 4.41%.

`O=C(O)Cn1c2ccccc2c2nnc(Sc3ccccc3F)nc21`: the IC50 was 2.24 µM in data set [1] (read-out: IC50) and 2.19 µM in data set [1] (read-out: pIC50 (converted)). In data set [2], this molecule showed an inhibition of 1.18%.

`O=C(O)Cn1c2ccccc2c2nn3c(nc4ccccc43)nc21`: the IC50 in data set [1] (read-out: IC50) was 9.95 µM. The inhibition in data set [2] was determined as 15.1%.

On to `CCCNC(=O)CSc1nnc2c3cc(C)ccc3n(CC(=O)O)c2n1`, for which, in data set [1] (read-out: IC50), the IC50 is 0.33 µM.

Regarding `Cc1c(CN(C)C)c2ccccc2n1CC(=O)O`, the IC50 in data set [1] (read-out: IC50) is 42.2 µM. Moreover, the inhibition in data set [3] turned out to be 22.3%.

`O=C(O)CSc1nnc2c(n1)[nH]c1ccccc12` displayed an inhibition in data set [5] of 3.46%.

For the molecule `O=C(O)Cn1cc(N2CCCC2)c2ccccc21`, the IC50 in data set [1] (read-out: IC50) came to 46.5 µM. The inhibition in data set [3] was 19.2%.

On to `O=C(O)CCn1ccc2ccccc21`, for which the values for the inhibition in data set [4] and in data set [3] were 53.5% and 11.8%, respectively.

By logD is commonly meant the decadic logarithm of the distribution of all forms, ionised or not, between an organic phase and buffer at a given pH. High values mean higher lipophilicity, low ones lower lipophilicity. Regarding `O=C(O)Cn1c2ccccc2c2nnc(S)nc21`, in data set [6], the logD at 1 h, 100 µM was -1.9. The molecule also displayed an IC50 in data set [7] of 21.4 µM.

Take `O=C(O)Cn1c2ccccc2c2nc3ccccc3nc21`: the IC50 in data set [1] (read-out: IC50) was found to be 2.75 µM.
